Assay results taken from ChEMBL document CHEMBL4251596, “Hetero-Diels-Alder reactions of novel 3-triazolyl-nitrosoalkenes as an approach to functionalized 1,2,3-triazoles with antibacterial profile” (Eur J Med Chem, 2018).
Converted amounts (≈) assume the structure as drawn. The source made the active and inactive calls. No cut-off for these calls is given here.

Experiments:
[1] = tested on: Staphylococcus epidermidis; assay: Antibacterial activity against Staphylococcus epidermidis ATCC 12228 assessed as diameter of inhibition at 30 ug/disk after 24 hrs by disk diffusion assay (reference value: 0 mm); format: functional; settings: ATCC 12228, 24 h, read-out: DIZ
Staphylococcus aureus [2] = assay: Antibacterial activity against Staphylococcus aureus ATCC 25923 assessed as diameter of inhibition at 30 ug/disk after 24 hrs by disk diffusion assay (reference value: 0 mm); format: functional; settings: ATCC 25923, 24 h, read-out: DIZ
Pseudomonas aeruginosa = assay: Antibacterial activity against Pseudomonas aeruginosa ATCC 27853 assessed as diameter of inhibition at 30 ug/disk after 24 hrs by disk diffusion assay (reference value: 0 mm); format: functional; settings: ATCC 27853, 24 h, read-out: DIZ
Staphylococcus simulans [3] = assay: Antibacterial activity against Staphylococcus simulans ATCC 27851 assessed as diameter of inhibition at 30 ug/disk after 24 hrs by disk diffusion assay (reference value: 0 mm); format: functional; settings: ATCC 27851, 24 h, read-out: DIZ
Staphylococcus aureus [4] = assay: Antibacterial activity against methicillin-resistant Staphylococcus aureus BMB9393 assessed as diameter of inhibition at 30 ug/disk after 24 hrs by disk diffusion assay (reference value: 0 mm); format: functional; settings: BMB9393, 24 h, read-out: DIZ
Klebsiella pneumoniae = assay: Antibacterial activity against Klebsiella pneumoniae ATCC 4352 assessed as diameter of inhibition at 30 ug/disk after 24 hrs by disk diffusion assay (reference value: 0 mm); format: functional; settings: ATCC 4352, 24 h, read-out: DIZ
Enterobacter cloacae = assay: Antibacterial activity against Enterobacter cloacae ATCC 23355 assessed as diameter of inhibition at 30 ug/disk after 24 hrs by disk diffusion assay (reference value: 0 mm); format: functional; settings: ATCC 23355, 24 h, read-out: DIZ
Proteus mirabilis = assay: Antibacterial activity against Proteus mirabilis ATCC 15290 assessed as diameter of inhibition at 30 ug/disk after 24 hrs by disk diffusion assay (reference value: 0 mm); format: functional; settings: ATCC 15290, 24 h, read-out: DIZ
Enterococcus faecalis = assay: Antibacterial activity against Enterococcus faecalis ATCC 29212 assessed as diameter of inhibition at 30 ug/disk after 24 hrs by disk diffusion assay (reference value: 0 mm); format: functional; settings: ATCC 29212, 24 h, read-out: DIZ
Serratia marcescens = assay: Antibacterial activity against Serratia marcescens ATCC 14756 assessed as diameter of inhibition at 30 ug/disk after 24 hrs by disk diffusion assay (reference value: 0 mm); format: functional; settings: ATCC 14756, 24 h, read-out: DIZ
Erythrocyte = assay: (§1) Hemolytic activity in human erythrocytes at 10 to 200 ug/ml after 3 hrs relative to control; format: ADME, cell-based; settings: erythrocyte, 3 h
[5] = as §1; format: ADME, cell-based, Erythrocyte; settings: erythrocytes, read-out: Activity
Staphylococcus aureus [6] = assay: Selectivity index, ratio of MIC for antibacterial activity against methicillin-resistant Staphylococcus aureus BMB9393 to MIC for antibacterial activity against Staphylococcus aureus ATCC 25923; format: functional
[7] = tested on: Staphylococcus epidermidis; assay: Antibacterial activity against Staphylococcus epidermidis ATCC 12228 after 24 hrs by microdilution assay; format: functional; settings: ATCC 12228, 24 h
Staphylococcus aureus [8] = assay: Antibacterial activity against Staphylococcus aureus ATCC 25923 after 24 hrs by microdilution assay; format: functional; settings: ATCC 25923, 24 h
[9] = Selectivity index, ratio of MIC for antibacterial activity against methicillin-resistant Staphylococcus aureus BMB9393 to MIC for antibacterial activity against Staphylococcus epidermidis ATCC 12228; format: functional
Staphylococcus simulans [10] = assay: Antibacterial activity against Staphylococcus simulans ATCC 27851 after 24 hrs by microdilution assay; format: functional; settings: ATCC 27851, 24 h
Staphylococcus aureus [11] = assay: Antibiofilm activity against methicillin-resistant Staphylococcus aureus BMB9393 at 1/2 and 1/4 MIC after 24 hrs by crystal violet based assay; format: functional
Staphylococcus aureus [12] = assay: Antibacterial activity against methicillin-resistant Staphylococcus aureus BMB9393 at 1/2 and 1/4 MIC after 24 hrs; format: functional, organism-based
Staphylococcus aureus [13] = assay: Antibacterial activity against methicillin-resistant Staphylococcus aureus BMB9393 after 24 hrs by microdilution assay; format: functional; settings: BMB9393, 24 h
[14] = Selectivity index, ratio of MIC for antibacterial activity against methicillin-resistant Staphylococcus aureus BMB9393 to MIC for antibacterial activity against Staphylococcus simulans ATCC 27851; format: functional

| SMILES | zone of inhibition at 30 µg/disc [1] | zone of inhibition at 30 µg/disc (Staphylococcus aureus [2]) | zone of inhibition at 30 µg/disc (Pseudomonas aeruginosa) | zone of inhibition at 30 µg/disc (Staphylococcus simulans [3]) | zone of inhibition at 30 µg/disc (Staphylococcus aureus [4]) | zone of inhibition at 30 µg/disc (Klebsiella pneumoniae) | zone of inhibition at 30 µg/disc (Enterobacter cloacae) | zone of inhibition at 30 µg/disc (Proteus mirabilis) | zone of inhibition at 30 µg/disc (Enterococcus faecalis) | zone of inhibition at 30 µg/disc (Serratia marcescens) | Activity (Erythrocyte) | further results |
| --- | --- | --- | --- | --- | --- | --- | --- | --- | --- | --- | --- | --- |
| COc1ccc(-n2cc(/C(Cc3ccc[nH]3)=N/O)nn2)cc1 | 0 mm | 0 mm | 0 mm | 0 mm | 0 mm | 0 mm | 0 mm | 0 mm | 0 mm | 0 mm |  |  |
| O=C(O)c1cn(C2CC2)c2cc(N3CCNCC3)c(F)cc2c1=O [CIPROFLOXACIN] |  |  | 37 mm |  |  | 28 mm |  | 39 mm |  | 29 mm | Non-Toxic |  |
| CCC(CC)(c1ccc[nH]1)c1ccc(C/C(=N\O)c2cn(-c3ccc(Cl)cc3)nn2)[nH]1 | 12 mm | 11 mm | 0 mm | 10 mm | 8 mm | 0 mm | 0 mm | 0 mm | 0 mm | 0 mm |  | hemolysis at 3 h [5]: < 10%; Selectivity Index (Staphylococcus aureus [6]): 8; MIC [7]: 32 mg/L (≈ 73.2 µM); MIC (Staphylococcus aureus [8]): 32 mg/L (≈ 73.2 µM); Selectivity Index [9]: 8; MIC (Staphylococcus simulans [10]): 32 mg/L (≈ 73.2 µM); Activity (Staphylococcus aureus [11]): 73 - 76%; Activity (Staphylococcus aureus [12]): Active; MIC (Staphylococcus aureus [13]): 256 mg/L (≈ 586 µM); Selectivity Index [14]: 8 |
| O=[N+]([O-])c1ccc(-n2cc(/C(Cc3ccc[nH]3)=N/O)nn2)cc1 | 0 mm | 0 mm | 0 mm | 0 mm | 0 mm | 0 mm | 0 mm | 0 mm | 0 mm | 0 mm |  |  |
| O/N=C(\Cc1ccc[nH]1)c1cn(-c2ccccc2)nn1 | 0 mm | 0 mm | 0 mm | 0 mm | 0 mm | 0 mm | 0 mm | 0 mm | 0 mm | 0 mm |  |  |
| CN[C@H](CC(C)C)C(=O)N[C@H]1C(=O)N[C@@H](CC(N)=O)C(=O)N[C@H]2C(=O)N[C@H]3C(=O)N[C@H](C(=O)N[C@H](C(=O)O)c4cc(O)cc(O)c4-c4cc3ccc4O)[C@H](O)c3ccc(c(Cl)c3)Oc3cc2cc(c3O[C@@H]2O[C@H](CO)[C@@H](O)[C@H](O)[C@H]2O[C@H]2C[C@](C)(N)[C@H](O)[C@H](C)O2)Oc2ccc(cc2Cl)[C@H]1O [VANCOMYCIN] | 17 mm | 15 mm |  | 20 mm | 13 mm |  |  |  | 18 mm |  | Non-Toxic | MIC (Staphylococcus simulans [10]): 1 mg/L (≈ 0.69 µM); Activity (Staphylococcus aureus [11]): Active |
| O/N=C(/CO/N=C(\Cc1c[nH]c2ccccc12)c1cn(-c2ccc(Cl)cc2)nn1)c1cn(-c2ccc(Cl)cc2)nn1 | 0 mm | 0 mm | 0 mm | 0 mm | 0 mm | 0 mm | 0 mm | 0 mm | 0 mm | 0 mm |  |  |
| CCC(CC)(c1ccc(C/C(=N\O)c2cn(-c3ccc(Cl)cc3)nn2)[nH]1)c1ccc(C/C(=N\O)c2cn(-c3ccc(Cl)cc3)nn2)[nH]1 | 0 mm | 0 mm | 0 mm | 0 mm | 0 mm | 0 mm | 0 mm | 0 mm | 0 mm | 0 mm |  |  |
| CC1(C)S[C@@H]2[C@H](NC(=O)Cc3ccccc3)C(=O)N2[C@H]1C(=O)O [PENICILLIN G] |  |  |  |  |  |  |  |  |  |  | Non-Toxic |  |
| O/N=C(\Cc1ccc[nH]1)c1cn(-c2ccc(Cl)cc2)nn1 | 0 mm | 0 mm | 0 mm | 0 mm | 0 mm | 0 mm | 0 mm | 0 mm | 0 mm | 0 mm |  |  |
